Patent publication US10626103B2, “Inhibitor of lysine specific demethylase-1” (CELGENE QUANTICEL RESEARCH, INC., priority 2014, dated 2020)

Columns and labels:
full-length human LSD1 = full-length human LSD1 (Homo sapiens (Human), UniProt O60341); experiment: In vitro enzyme inhibition assay LSD-1 (TR-FRET); type: biochemical; conditions: H3K4me1-biotin peptide
Description: This assay determines the ability of a test compound to inhibit LSD1 demethylase activity.
The enzymatic assay of LSD1 activity is based on Time Resolved-Fluorescence Resonance Energy Transfer (TR-FRET) detection.
Plates were read by EnVision Multilabel Reader in TR-FRET mode (excitation at 320 nm, emission at 615 nm and 665 nm) after 1 hour incubation at room temperature.
The ability of the compounds disclosed herein to inhibit LSD1 activity was quantified and the respective IC50 value was determined.

[1] = system: CD11b expression in THP-1 (AML) cells; experiment: LSD1 CD11b cellular assay (flow cytometry); type: cell-based; conditions: Homo sapiens, 96 h, THP-1 cells, 4 days
Description: To analyze LSD1 inhibitor efficacy in cells, a CDL11b flow cytometry assay was performed. LSD1 inhibition induces CD11b expression in THP-1 (AML) cells which can be measured by flow cytometry. […] LSD 1 test compounds were serially diluted in DMSO. The dilutions were added to each well accordingly to a final concentration of 0.2% DMSO. The cells were incubated at 37 degrees Celsius in 5% CO2 for 4 days. 250 μL of each well was transferred to a well in a 96 well round bottom plate. The plate was centrifuged at 1200 rpm at 4 degrees Celsius in a Beckman Coulter Alegra 6KR centrifuge for 5 minutes. The media was removed leaving the cells at the bottom of the wells. The cells were washed in 100 μL cold HBSS (Hank's Balanced Salt Solution) plus 2% BSA (Bovine Serum Albumin) solution and centrifuged at 1200 rpm at 4 degrees Celsius for 5 minutes. The wash was removed. […] The cells were centrifuged and washed two times in 100 μl HBSS plus 2% BSA. After the final spin the cells were resuspended in 100 μL HBSS plus 2% BSA containing 1 ug/mL DAPI (4′,6-diamidino-2-phenylindole). The cells were then analyzed by flow cytometry in a BD FACSAria machine. Cells were analyzed for CD11b expression. The percent of CD11b expressing cells for each inhibitor concentration was used to determine an IC50 curve for each compound analyzed.

| Compound | IC50 (full-length human LSD1) | IC50 [1] |
| --- | --- | --- |
| CN[C@H]1CCN(C(=O)c2cn(-c3ccc(OC)cc3)c(-c3ccc(C#N)c(F)c3)n2)C1 [Example 71, 2-Fluoro-4-[1-(4-methoxyphenyl)-4-[(3S)-3-(methylamino)pyrrolidine-1-carbonyl]imidazol-2-yl]benzonitrile] | < 0.1 µM | < 0.1 µM |
| Cc1c(C(=O)N[C@@H]2CCCNC2)nc(-c2ccc(C#N)c(F)c2)n1-c1ccc2nn(C)c(Cl)c2c1 [Example 117, 1-(3-Chloro-2-methylindazol-5-yl)-2-(4-cyano-3-fluorophenyl)-5-methyl-N-[(3R)-piperidin-3-yl]imidazole-4-carboxamide] | < 0.1 µM | < 0.1 µM |
| Cn1cc2cc(-c3c(-c4ccc(C#N)c(F)c4)cc(C(=O)N4CCC[C@@H](N)C4)n3C[C@H](O)CO)ccc2n1 [Example 39, 4-(5-((R)-3-aminopiperidine-1-carbonyl)-1-((S)-2,3-dihydroxypropyl)-2-(2-methyl-2H-indazol-5-yl)-1H-pyrrol-3-yl)-2-fluorobenzonitrile] | < 0.1 µM | < 0.1 µM |
| Cc1c(C(=O)N2CCC3(CCCN3)C2)nc(-c2ccc(C#N)c(F)c2)n1-c1ccc2nn(C)cc2c1 (stereo not shown) [Example 90, 4-[4-(1,7-Diazaspiro[4.4]nonane-7-carbonyl)-5-methyl-1-(2-methylindazol-5-yl)imidazol-2-yl]-2-fluorobenzonitrile] | < 0.1 µM | 0.1 to 1 µM |
| Cc1c(C(=O)N2CC[C@H](N(C)C)C2)nc(-c2ccc(C#N)c(F)c2)n1-c1ccc2c(cnn2C)c1 [Example 95, 4-[4-[(3S)-3-(Dimethylamino)pyrrolidine-1-carbonyl]-5-methyl-1-(1-methylindazol-5-yl)imidazol-2-yl]-2-fluorobenzonitrile] | < 0.1 µM | < 0.1 µM |
| Cc1c(C(=O)N2CC[C@H](N)C2)nc(-c2ccc(C#N)c(F)c2)n1-c1ccc2c(cnn2C)c1 [Example 24, 4-[4-[(3S)-3-aminopyrrolidine-1-carbonyl]-5-methyl-1-(1-methylindazol-5-yl)imidazol-2-yl]-2-fluorobenzonitrile] | < 0.1 µM | < 0.1 µM |
| Cn1c(C(=O)N2CCC[C@@H](N)C2)cc(-c2ccc(C#N)cc2)c1-c1ccncc1 [Example 6, 4-[5-(3-(R)-amino-piperidine-1-carbonyl)-1-methyl-2-pyridin-4-yl-1H-pyrrol-3-yl]-benzonitrile] | < 0.1 µM | < 0.1 µM |
| COc1ccc(-n2c(-c3ccc(C#N)c(F)c3)nc(C(=O)N[C@@H]3CCCNC3)c2F)cc1F [Example 86, 2-(4-Cyano-3-fluorophenyl)-5-fluoro-1-(3-fluoro-4-methoxyphenyl)-N-[(3R)-piperidin-3-yl]imidazole-4-carboxamide] | < 0.1 µM | 0.1 to 1 µM |
| Cc1c(C(=O)N2CC[C@H](N(C)C)C2)nc(-c2ccc(C#N)c(F)c2)n1-c1cc2c(Cl)n(C)nc2cc1F [Example 110, 4-[1-(3-Chloro-6-fluoro-2-methylindazol-5-yl)-4-[(3S)-3-(dimethylamino)pyrrolidine-1-carbonyl]-5-methylimidazol-2-yl]-2-fluorobenzonitrile] | < 0.1 µM | < 0.1 µM |
| Cn1nc2ccc(-n3cc(C(=O)N[C@@H]4CCCNC4)nc3-c3ccc(C#N)c(F)c3)cc2c1Cl [Example 114, 1-(3-Chloro-2-methylindazol-5-yl)-2-(4-cyano-3-fluorophenyl)-N-[(3R)-piperidin-3-yl]imidazole-4-carboxamide] | < 0.1 µM | < 0.1 µM |
| CN[C@H]1CCN(C(=O)c2cn(-c3ccc(OC)c(F)c3)c(-c3ccc(C#N)c(F)c3)n2)C1 [Example 65, 2-Fluoro-4-[1-(3-fluoro-4-methoxyphenyl)-4-[(3S)-3-(methylamino)pyrrolidine-1-carbonyl]imidazol-2-yl]benzonitrile] | < 0.1 µM | < 0.1 µM |
| Cn1nc2ccc(-n3cc(C(=O)N4CCC5(CCN5)C4)nc3-c3ccc(C#N)c(F)c3)cc2c1Cl (stereo not shown) [Example 93, 4-[1-(3-Chloro-2-methylindazol-5-yl)-4-(1,7-diazaspiro[3.4]octane-7-carbonyl)imidazol-2-yl]-2-fluorobenzonitrile] | < 0.1 µM | 0.1 to 1 µM |
| Cc1ccc(-c2c(-c3ccc(C#N)cc3)cc(C(=O)N3CCC[C@@H](N)C3)n2C)cc1 [Example 1, 4-[5-(3-(R)-amino-piperidine-1-carbonyl)-1-methyl-2-p-tolyl-1H-pyrrol-3-yl]-benzonitrile] | < 0.1 µM | < 0.1 µM |
| Cn1cc2cc(-c3c(-c4ccc(C#N)c(F)c4)cc(C(=O)N[C@@H]4CCNC4)n3C)ccc2n1 [Example 30, N-((3R)pyrrolidin-3-yl)[4-(4-cyano-3-fluorophenyl)-1-methyl-5-(2-methyl(2H-indazol-5-yl))pyrrol-2-yl]carboxamide] | < 0.1 µM | < 0.1 µM |
| Cc1c(C(=O)N2CC[C@H](N)C2)nc(-c2ccc(C#N)c(F)c2)n1-c1cc(F)c2nn(C)cc2c1 [Example 50, 4-[4-[(3S)-3-Aminopyrrolidine-1-carbonyl]-1-(7-fluoro-2-methylindazol-5-yl)-5-methylimidazol-2-yl]-2-fluorobenzonitrile] | < 0.1 µM | < 0.1 µM |
| COc1ccc(-n2c(-c3ccc(C#N)c(F)c3)nc(C(=O)N3CCC[C@@H](N)C3)c2Cl)cc1F [Example 66, 4-[4-[(3R)-3-Aminopiperidine-1-carbonyl]-5-chloro-1-(3-fluoro-4-methoxyphenyl)imidazol-2-yl]-2-fluorobenzonitrile] | < 0.1 µM | < 0.1 µM |
| Cn1c(C(=O)N2CCC[C@@H](N)C2)cc(-c2ccc(C#N)c(F)c2)c1-c1ccc2c(c1)ncn2C [Example 10, 4-[5-(3-(R)-amino-piperidine-1-carbonyl)-1-methyl-2-(1-methyl-1H-benzoimidazol-5-yl)-1H-pyrrol-3-yl]-2-fluoro-benzonitrile] | < 0.1 µM | < 0.1 µM |
| CN[C@@H]1CCCN(C(=O)c2nc(-c3ccc(C#N)c(F)c3)n(-c3ccc4nn(C)cc4c3)c2C)C1 [Example 98, 2-Fluoro-4-[5-methyl-4-[(3R)-3-(methylamino)piperidine-1-carbonyl]-1-(2-methylindazol-5-yl)imidazol-2-yl]benzonitrile] | < 0.1 µM | < 0.1 µM |
| COc1ccc(-c2c(-c3ccc(C#N)c(F)c3)cc(C(=O)N3CCC[C@@H](N)C3)n2CCO)cc1 [Example 8, 4-[5-(3-(R)-amino-piperidine-1-carbonyl)-1-(2-hydroxy-ethyl)-2-(4-methoxy-phenyl)-1H-pyrrol-3-yl]-2-fluoro-benzonitrile] | < 0.1 µM | < 0.1 µM |
| CN[C@@H]1CCCN(C(=O)c2nc(-c3ccc(C#N)c(F)c3)n(-c3ccc(OC)cc3)c2F)C1 [Example 74, 2-Fluoro-4-[5-fluoro-1-(4-methoxyphenyl)-4-[(3R)-3-(methylamino)piperidine-1-carbonyl]imidazol-2-yl]benzonitrile] | < 0.1 µM | < 0.1 µM |
| Cc1c(C(=O)N(C)CCN)nc(-c2ccc(C#N)c(F)c2)n1-c1ccc2nn(C)cc2c1 [Example 44, N-(2-Aminoethyl)-2-(4-cyano-3-fluorophenyl)-N,5-dimethyl-1-(2-methylindazol-5-yl)imidazole-4-carboxamide] | < 0.1 µM | < 0.1 µM |
| CN[C@H]1CCCN(C(=O)c2nc(-c3ccc(C#N)c(F)c3)n(-c3ccc4nn(C)cc4c3)c2C)C1 [Example 97, 2-Fluoro-4-[5-methyl-4-[(3S)-3-(methylamino)piperidine-1-carbonyl]-1-(2-methylindazol-5-yl)imidazol-2-yl]benzonitrile] | < 0.1 µM | < 0.1 µM |
| COc1ccc(-n2c(-c3ccc(C#N)c(F)c3)nc(C(=O)N3CC[C@H](N)C3)c2F)cc1F [Example 89, 4-[4-[(3S)-3-Aminopyrrolidine-1-carbonyl]-5-fluoro-1-(3-fluoro-4-methoxyphenyl)imidazol-2-yl]-2-fluorobenzonitrile] | < 0.1 µM | 0.1 to 1 µM |
| Cc1c(C(=O)NC2CCNC2)nc(-c2ccc(C#N)c(F)c2)n1-c1ccc2nn(C)cc2c1 (stereo not shown) [Example 46, 2-(4-Cyano-3-fluorophenyl)-5-methyl-1-(2-methylindazol-5-yl)-N-pyrrolidin-3-ylimidazole-4-carboxamide] | < 0.1 µM | < 0.1 µM |
| Cn1cc2cc(-c3c(-c4ccc(C#N)c(F)c4)cc(C(=O)NC[C@@H]4CCNC4)n3C)ccc2n1 [Example 40, N-[((3R)pyrrolidin-3-yl)methyl][4-(4-cyano-3-fluorophenyl)-1-methyl-5-(2-methyl(2H-indazol-5-yl))pyrrol-2-yl]carboxamide] | < 0.1 µM | < 0.1 µM |
| CN(C)[C@H]1CCN(C(=O)c2cn(-c3ccc4nn(C)c(Cl)c4c3)c(-c3ccc(C#N)c(F)c3)n2)C1 [Example 57, 4-[1-(3-Chloro-2-methylindazol-5-yl)-4-[(3S)-3-(dimethylamino)pyrrolidine-1-carbonyl]imidazol-2-yl]-2-fluorobenzonitrile] | < 0.1 µM | < 0.1 µM |
